Measured values: patent US7384950B2, “Thienopyrimidinediones and their use in the modulation of autoimmune disease” (AstraZeneca AB, priority 2001, dated 2008)

Test system: PMA/ionomycin-stimulated peripheral blood mononuclear cell (PBMC)
Test: Inhibition of PMA/ionomycin-stimulated peripheral blood mononuclear cell proliferation
Format: cell-based
Conditions: human PBMC from a single donor, 10% human serum, PMA 0.5 ng/ml and ionomycin 500 ng/ml, 72 hours, 3H-thymidine incorporation; read-out: IA50 (the source's name)
Protocol: The ability of compounds which can inhibit PMA/ionomycin-stimulated peripheral blood mononuclear cell proliferation can be assessed, for example using the procedure set out below:
Inhibition of PMA/ionomycin-stimulated Peripheral Blood Mononuclear Cell Proliferation
The assay for PMA/ionomycin-stimulated PBMC proliferation was performed in 96-well flat bottomed microtitre plates. Compounds were prepared as 10 mM stock solutions in dimethyl sulfoxide. A 50-fold dilution of this was prepared in RPMI and serial dilutions were prepared from this solution. 10 μl of the 50-fold diluted stock, or dilutions of it, were added to the well to give concentrations in the assay starting at 9.5 μM and going down. Into each well was placed 1×10^5 PBMC, prepared from human peripheral blood from a single donor, in RPMI1640 medium supplemented with 10% human serum, 2 mM glutamine and penicillin/streptomycin. Phorbol myristate acetate (PMA) (0.5 ng/ml final concentration) and ionomycin (500 ng/ml final concentration) were added to these cells in supplemented RPMI1640 medium (as above) so that the final volume of the assay was 0.2 ml. […] The level of radioactivity incorporated by the cells was then determined and this is a measure of proliferation.

`CC(C)n1c(=O)n(C)c(=O)c2c(C(=O)N3C[C@H](O)CO3)c(Cc3ccnc4ccccc34)sc21` [Example 20, (S) 5-{4-Hydroxyisoxazolidin-2-ylcarbonyl}-3-methyl-1-(isopropyl)-6-(4-quinolinylmethyl)thieno[2,3-d]pyrimidine-2,4(1H,3H)-dione] was tested, and the IC50 was 5 nM.
